In patent EP0468448B1, “Analogs of hirudin having antiplatelet activity” (MERRELL PHARMACEUTICALS INC., priority 1990, dated 1992):
Numbered stars: 1 amine (or outer) side, 2 acyl side, 3 side chain; on linkers, the order of the positions; unused ones are H or OH. Square brackets hold non-standard residues; d marks the D form. Peptide text beside a SMILES is read from it. Cha = N[C@@H](CC1CCCCC1)C(=O)O; Suc = O=C(CCC(=O)[*:2])[*:1]; Ava = NCCCCC(=O)O

These compounds were tested on platelet (assay: Dog antiplatelet activity). Settings: read-out: Dog Antiplatelet IC₅₀.
Assay type: cell-based

Row | SMILES | IC50 [µM]
1 | CC[C@H](C)[C@H](NC(=O)[C@@H]1CCCN1C(=O)[C@H](CCC(=O)O)NC(=O)[C@H](Cc1ccc(OC)cc1)NC(=O)[C@H](CC(=O)O)NC(=O)CNC(=O)CCCCN)C(=O)N1CCC[C@H]1C(=O)N[C@@H](CCC(=O)O)C(=O)N[C@@H](CCC(=O)O)C(=O)N[C@@H](C)C(=O)N[C@@H](CC1CCCCC1)C(=O)N[C@H](CCC(=O)O)C(=O)O [Example 3, 5AP-Gly-Asp-Tyr(OCH₃)-Glu-Pro-Ile-Pro-Glu-Glu-Ala-Cha-glu-OH] | 280
2 | CC[C@H](C)[C@H](NC(=O)[C@@H]1CCCN1C(=O)[C@H](CCC(=O)O)NC(=O)[C@H](Cc1ccc(OC)cc1)NC(=O)[C@H](CC(=O)O)NC(=O)CNC(=O)CCCCNC(=N)N)C(=O)N1CCC[C@H]1C(=O)N[C@@H](CCC(=O)O)C(=O)N[C@@H](CCC(=O)O)C(=O)N[C@@H](C)C(=O)N[C@@H](CC1CCCCC1)C(=O)N[C@H](CCC(=O)O)C(=O)O [Example 5, 5GP-Gly-Asp-Tyr(OCH₃)-Glu-Pro-Ile-Pro-Glu-Glu-Ala-Cha-glu-OH] | 10
3 | CC[C@H](C)[C@H](NC(=O)[C@@H]1CCCN1C(=O)[C@H](CCC(=O)O)NC(=O)[C@H](Cc1ccc(O)cc1)NC(=O)CCC(=O)O)C(=O)N1CCC[C@H]1C(=O)N[C@@H](CCCNC(=N)N)C(=O)NCC(=O)N[C@@H](CC(=O)O)C(=O)N[C@@H](Cc1ccccc1)C(=O)N[C@H](CCC(=O)O)C(=O)O [Example 4] (Suc-YEPIPRGDF[dE]-OH) | 42
4 | CC[C@H](C)[C@H](NC(=O)[C@@H]1CCCN1C(=O)[C@H](CCC(=O)O)NC(=O)[C@H](Cc1c[nH]c2ccccc12)NC(=O)[C@H](CC(=O)O)NC(=O)CNC(=O)CCCCNC(=N)N)C(=O)N1CCC[C@H]1C(=O)N[C@@H](CCC(=O)O)C(=O)N[C@@H](CCC(=O)O)C(=O)N[C@@H](C)C(=O)N[C@@H](CC1CCCCC1)C(=O)N[C@H](CCC(=O)O)C(=O)O [Example 1] | 6
5 | CC[C@H](C)[C@H](NC(=O)[C@H](CCC(=O)O)NC(=O)[C@H](CCC(=O)O)NC(=O)[C@H](Cc1c[nH]c2ccccc12)NC(=O)[C@H](CC(=O)O)NC(=O)CNC(=O)CCCCN)C(=O)N1CCC[C@H]1C(=O)N[C@@H](CCC(=O)O)C(=O)N[C@@H](CCC(=O)O)C(=O)N[C@@H](C)C(=O)N[C@@H](CC1CCCCC1)C(=O)N[C@H](CCC(=O)O)C(=O)O [Example 2] (H-[Ava]GDWEEIPEEA[Cha][dE]-OH) | 250
